From PubChem BioAssay AID1963443 (Molecular Pharmacology Branch, DTP, NCI, 2024)
Values joined by “and” are separate entries in the source; they are usually repeats but may differ in a detail not shown here. Equal values may be shown once.

Tested on: MDA-MB-231 complex spheroids, growth inhibition
Test: Anticancer human tumor MDA-MB-231 cell line growth inhibition [Asc];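 also: spheroids exposed to compounds for 7 days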
Settings: for viability, T/C: stronger effect = lower value
Protocol: Multicellular complex tumor spheroid response to apoptosis pathway targeting inhibitors Alrizomadlin, Pelcitoclax, and Dasminapant in combination with a variety of drugs and investigational agents in selected tumor cell lines
The MDM2 inhibitor alrizomadlin, the Bcl-2/Bcl-xL inhibitor pelcitoclax, and the IAPs inhibitor dasminapant were evaluated both individually and in combination with standard of care and investigational anticancer small molecules within a complex spheroid model of solid tumors. . Complex spheroids include a stromal component modeled by human endothelial cells (HUVEC) and fibroblasts modeled by human mesenchymal stem cells (MSCs). The concentration ranges selected for each drug and investigational agent were based upon clinically achievable concentrations if the clinical Cmax of the agent was known.
Compounds. The drugs and investigational agents: alrizomadlin (APG-115; NSC831270), pelcitoclax (APG-1252; NSC835773), dasminapant (APG-1387;NSC834197), TAK-243 (NSC785004), copanlisib (NSC809693), olaparib (NSC753686), talazoparib (NSC767125), cobimetinib (NSC 768068), eltanexor (KPT-8602, NSC 794443), abemaciclib (NSC 768073), sotorasib (NSC818433), adagrasib (NSC 831453), MRTX-1133 (NSC 836407), Iadademestat (ORY1001, NSC 806812), and RMC-4630 (NSC839698), were obtained from the NCI Developmental Therapeutics Program Chemical Repository. The FDA-approved anticancer drug set is available from the Developmental Therapeutics Program at https://dtp.cancer.gov/organization/dscb/obtaining/available plates.htm. […] The stock solutions were prepared in dimethyl sulfoxide (DMSO, Sigma-Aldrich, St. Louis, MO, cat. D2650) at 800-fold the tested concentration and stored at -70 degrees C prior to their use. All drugs and investigational agents were tested over a range starting from a high concentration at or near the clinical Cmax and decreasing in half-log increments. If the clinical Cmax for an agent had not been determined, the highest concentration tested was 10 microM.
The patient-derived cancer (PDC) cell lines include five colon adenocarcinomas: 186277-243-T-J2-PDC, 616215-338-R-J1-PDC, 439559-082-T-J2-PDC, 463943-066-T-J2-PDC, and 519858-162-T-J1-PDC; three pancreatic carcinomas: 323965-272-R-J2-PDC, 521955-158-R6-J3-PDC, and 521955-158-R2-J5-PDC; two uterine sarcomas: 327498-152-R-J2-PDC and 993429-296-R-J1-PDC; two rhabdomyosarcomas: 755483-174-R-J1-PDC and 772245-204-R-J1-PDC; two soft tissue sarcomas: 126254-015-R-J1-PDC and 494315-158-R-J1-PDC; two malignant fibrous histiocytomas: 317291-083-R-J1-PDC and 596521-263-R-J1-PDC; two breast carcinomas: 171881-019-R-J1-PDC and 885512-296-R-J2-PDC; and one ovarian carcinoma: 6556581-035-R-J-PDC were obtained from the NCI PDMR, (https://pdmr.cancer.gov). The established cell lines HSSY-2 synovial sarcoma (RRID:CVCL 8719), SYO-1 synovial sarcoma (RRID:CVCL_7146), MPNST malignant peripheral neural sheath tumor were obtained from the Sloan Kettering Institute. The following established cell lines were purchased from the American Type Culture Collection (ATCC, Manassas, VA), Sor the received from the NCI repository:, PANC-1 pancreatic carcinoma (CRL-1469, RRID:CVCL_0480), OVCAR-5 ovarian carcinoma (RRID:CVCL_1628), OVCAR-8 ovarian carcinoma (RRID:CVCL_1629), , MCF-7 breast carcinoma (CRL-12584, RRID:CVCL_0031), MDA-MB-231 breast carcinoma (CRL-12532, RRID:CVCL_0062), NCI-H1876 small cell lung carcinoma (CRL-5902, RRID:CVCL_1503), NCI-H510A small cell lung carcinoma (HTB-184, RRID:CVCL_1565), NCI-H1417 (CRL-5869, RRID:CVCL_1469), and NCI-H196 small cell lung carcinoma (CRL-5823, RRID:CVCL_1509). Dr. Peter Houghton (Greehey Children's Cancer Research Institute, University of Texas Health Science Center, San Antonio, TX) provided Rh-18 rhabdomyosarcoma (RRID:CVCL_1659). Pooled donor human umbilical vein endothelial cells (HUVEC, Lonza, cat. CC-2519) and human mesenchymal stem cells (hMSC, Lonza, cat. PT-2501) were purchased from Lonza (Walkersville, MD).
Cell Culture. […]

[1] = compound alone, run of 10/11/2022

IC50 (curve of compound)	SMILES	viability, T/C (compound 0.0316 µM)	viability, T/C (compound 0.1 µM)	viability, T/C (compound 0.316 µM)	viability, T/C (compound 1 µM)	viability, T/C (compound 3.16 µM)	viability, T/C (compound 0.00316 µM)	viability, T/C (compound 0.01 µM)	further results
2170 nM and > 10000 nM	C#Cc1c(F)ccc2cc(O)cc(-c3ncc4c(N5CC6CCC(C5)N6)nc(OCC56CCCN5CC(F)C6)nc4c3F)c12 (stereo unspecified)	120% and 100% and 106%	95.9% and 97.5% and 97.1%	111% and 98.8% and 91.7%	66.2% and 72.6% and 72.7%	48.7% and 64.1% and 62.1%			viability, T/C (compound 10 µM): 35.2% and 51.7% and 50.2%
3510 nM and 3280 nM and 4780 nM	C=C(F)C(=O)N1CCN(c2nc(OCC3CCCN3C)nc3c2CCN(c2cccc4cccc(Cl)c24)C3)CC1CC#N (stereo unspecified)	101% (2×) and 104%	103% and 99.7% and 93.1%	103% and 98.3% and 110%	101% and 94.9% and 103%	54.9% and 51.6% and 77.3%			viability, T/C (compound 10 µM): 0.35% and 0.45% and 1.25%
> 3000 nM	CCN1C(C(=O)NC23CCC(C(=O)O)(CC2)CC3)C(c2cccc(Cl)c2F)C2(C(=O)Nc3cc(Cl)ccc32)C12CCCCC2 (stereo unspecified)								viability, T/C (compound 0.00949 µM): 96.1% and 106%; viability, T/C (compound 0.03 µM): 97.5% [middle of 15 runs]; viability, T/C (compound 0.0949 µM): 104% [middle of 15 runs]; viability, T/C (compound 0.3 µM): 105% [middle of 15 runs]; viability, T/C (compound 0.949 µM): 112% [middle of 15 runs]; IC50 [1]: > 3000 nM
386 nM and 285 nM and 373 nM	Cc1nc(N2CCC3(CC2)COC(C)C3N)c(CO)nc1Sc1ccnc(N)c1Cl (stereo unspecified)								viability, T/C (compound 0.00949 µM): 122% and 98.3% and 98%; viability, T/C (compound 0.03 µM): 117% and 93.5% and 101%; viability, T/C (compound 0.0949 µM): 111% and 94.2% and 94.4%; viability, T/C (compound 0.3 µM): 63.3% and 47.9% and 61.2%; viability, T/C (compound 0.949 µM): 3.21% and 2.3% and 2.69%; viability, T/C (compound 3 µM): 0.89% and 1.08% and 0.76%
> 100 nM	Cn1ncnc1[C@H]1c2n[nH]c(=O)c3cc(F)cc(c23)N[C@@H]1c1ccc(F)cc1	89.1% and 103% and 89.5%	84.4% and 100% and 74.3%				92.4% and 90.3% and 77.6%	91.5% and 85.7% and 87.9%	viability, T/C (compound 0.000316 µM): 101% and 114% and 108%; viability, T/C (compound 0.001 µM): 100% and 110% and 86.8%
> 100 nM	NC1CCC(NC2CC2c2ccccc2)CC1 (stereo unspecified)	103% and 96.8% and 107%	104% and 98.3% and 99.8%				105% and 98.7% and 107%	105% and 98.6% and 101%	viability, T/C (compound 0.000316 µM): 102% and 98.5% and 104%; viability, T/C (compound 0.001 µM): 108% and 99% and 105%
> 10000 nM and 3180 nM	O=C(c1cc(Cc2n[nH]c(=O)c3ccccc23)ccc1F)N1CCN(C(=O)C2CC2)CC1	95.2% and 99.3% and 106%	97.2% and 86.9% and 110%	92.7% and 75.9% and 84.1%	90.8% and 88.9% and 83.6%	87% and 88.3% and 49%			
37 nM and 83.1 nM and 13.6 nM	O=C(c1ccc(F)c(F)c1Nc1ccc(I)cc1F)N1CC(O)([C@@H]2CCCCN2)C1	47.7% and 58.3% and 33.5%	43.8% and 50.7% and 21.9%	29.6% and 30.4% and 22.2%	2.86% and 5.09% and 7.27%		86.9% and 79.8% and 88.6%	56.7% and 67.7% and 55.5%	

More lines, now with the values behind:

SMILES	IC50 (curve of compound)	viability, T/C (compound 0.0316 µM)	viability, T/C (compound 0.1 µM)	viability, T/C (compound 0.316 µM)	viability, T/C (compound 1 µM)	viability, T/C (compound 3.16 µM)	viability, T/C (compound 0.00316 µM)	viability, T/C (compound 0.01 µM)	further results
C=CC(=O)N1CCN(c2nc(=O)n(-c3c(C)ccnc3C(C)C)c3nc(-c4c(O)cccc4F)c(F)cc23)C(C)C1 (stereo unspecified)	> 10000 nM	101% and 102% and 103%	104% and 105% and 103%	106% (2×) and 107%	107% and 109% and 111%	119% and 117% and 113%			viability, T/C (compound 10 µM): 119% and 121% and 110%
CCN1CCN(Cc2ccc(Nc3ncc(F)c(-c4cc(F)c5nc(C)n(C(C)C)c5c4)n3)nc2)CC1	882 nM and 238 nM and > 1000 nM	78.5% and 79.9% and 88.6%	64.9% and 54.5% and 74.4%	51.7% and 48% and 64.4%	50.2% and 48.8% and 72%		91.9% and 79.5% and 77%	92.6% and 86.9% and 80%	
CNC(C)C(=O)NC1CN(S(=O)(=O)c2cccc(S(=O)(=O)N3CCC4CCC(C(=O)NC(c5ccccc5)c5ccccc5)N4C(=O)C(NC(=O)C(C)NC)C3)c2)CCC2CCC(C(=O)NC(c3ccccc3)c3ccccc3)N2C1=O (stereo unspecified)	< 3.16 nM	1.55% [middle of 14 runs]	1.38% [middle of 12 runs]				5.11% and 4.58% and 5.25%	2.25% [middle of 14 runs]	IC50 (compound alone, run of 10/24/2022): < 10 nM; IC50 (compound alone, run of 11/15/2022): < 3.16 nM
COc1c(OCCCN2CCOCC2)ccc2c3n(c(=NC(=O)c4cnc(N)nc4)nc12)CCN3	82.5 nM and 91.6 nM and 226 nM	64.8% and 66.8% and 75.9%	47.6% and 48.4% and 60%	36.6% and 36.7% and 45.5%	32% and 32.1% and 41.6%		83.7% and 92% and 96.1%	85.2% and 80.5% and 92.2%	
Cc1c(S(C)(=O)=O)c(-c2cc(F)cc(N3CCN(c4ccc(NS(=O)(=O)c5ccc(NC(CCN6CCC(C(=O)OCCCP(=O)(O)O)CC6)CSc6ccccc6)c(S(=O)(=O)C(F)(F)F)c5)cc4)CC3)c2)c(-c2ccc(Cl)cc2)n1C(C)C (stereo unspecified)			96.4% [middle of 14 runs]	105% [middle of 14 runs]	98.3% [middle of 14 runs]	98.5% [middle of 14 runs]			viability, T/C (compound 10 µM): 95% [middle of 14 runs]; IC50 [1]: > 10000 nM
NC(=O)C(=Cn1cnc(-c2cc(C(F)(F)F)cc(C(F)(F)F)c2)n1)c1cncnc1	72.4 nM and 61.5 nM and 74.9 nM								viability, T/C (compound 0.000949 µM): 95.7% and 87.8% and 73.5%; viability, T/C (compound 0.003 µM): 92.4% and 95.1% and 81.3%; viability, T/C (compound 0.00949 µM): 84.7% and 87.1% and 84.5%; viability, T/C (compound 0.03 µM): 57.8% and 56.5% and 60.4%; viability, T/C (compound 0.0949 µM): 50.5% and 47% and 48.1%; viability, T/C (compound 0.3 µM): 14.4% and 21.2% and 21.8%
